{"source": "patent US7833531B2", "about": "“Method for treating insulin sensitivity by long-acting GLP-1 receptor mimetibody agonists” (Centocor, Inc., priority 2006, dated 2010)", "format_in_all_cases": "in vivo", "key": {"DIO mice [1]": {"test_system": "DIO mice", "assay": "Hyperinsulinemic euglycemic clamp, body weights and plasma parameters in DIO mice after acute treatment", "conditions": "for Body weight / FFA / Glucose / Glycerol / Insulin: single i.p. injection, mean ± SD; for FFA / Glucose / Glycerol / Insulin: plasma", "protocol": "(§1) The effect of acute treatment of CNTO 736 (Table 4, SEQ ID NO:70) on insulin sensitivity and lipid metabolism was evaluated in C57Bl mice maintained on a high fat diet for 10 weeks (DIO mice). […] The effect of chronic treatment of CNTO 736 on insulin sensitivity and lipid metabolism was evaluated in C57Bl mice maintained on a high fat diet for 10 weeks. […] The hyperinsulinemic-euglycemic clamp was performed under Acepromazine (6.25 mg/kg)/Midazolam (6.25 mg/kg)/Fentanyl (0.3125 mg/kg) anaesthesia in the following manner. Mice had free access to high fat food and water until 10 hours prior to the clamp. […] Subsequently, insulin was administered in a primed (4.5 mU) continuous (6.8 mU/h) i.v. infusion for approximately 2 h to attain steady state circulating insulin levels of 4 ng/ml. […] VLDL-TG production was calculated from the slope of the concentration curve and expressed as gmol/kg/min. Turnover rates of glucose (μmol/min/kg) was calculated in basal and hyperinsulinemic conditions as the rate of tracer infusion (dpm/min) divided by the plasma specific activity of 14C-glucose (dpm/μmol). The ratio was corrected for body weight. Endogenous glucose production (EGP) was calculated as the difference between the tracer-derived rate of glucose appearance and the infusion rate of glucose. Glucose disposal was calculated based on the concentration of 14C-glucose normalized to infusion rate of glucose. The statistical significance (p<0.05) in various measures of glucose turnover and VLDL production among groups was tested by analysis of variance."}, "DIO mice [2]": {"test_system": "DIO mice", "assay": "Hyperinsulinemic euglycemic clamp, body weights and plasma parameters in DIO mice after chronic treatment", "conditions": "for Body weight / FFA / Glycerol / Insulin / Glucose: daily i.p. injections weeks 7 through 10, mean ± SD; for FFA / Glycerol / Insulin / Glucose: plasma", "protocol": "as §1, with “variance. […] Two hours after the last dose, mice were subjected to hyperinsulinemic euglycemic clamp.” for “variance.”"}, "DIO mice [3]": {"test_system": "DIO mice", "assay": "VLDL production in DIO mice after acute treatment", "protocol": "(§2) The effect of acute treatment of CNTO 736 (Table 4, SEQ ID NO:70) on insulin sensitivity and lipid metabolism was evaluated in C57Bl mice maintained on a high fat diet for 10 weeks (DIO mice). […] The effect of chronic treatment of CNTO 736 on insulin sensitivity and lipid metabolism was evaluated in C57Bl mice maintained on a high fat diet for 10 weeks.\n(§3) Blood samples (20 μl) were taken at t=0, 10, 20, 40 and 60 minutes after injection to determine the concentration of plasma triglycerides (TG). VLDL-TG production was calculated from the slope of the concentration curve and expressed as gmol/kg/min. Turnover rates of glucose (μmol/min/kg) was calculated in basal and hyperinsulinemic conditions as the rate of tracer infusion (dpm/min) divided by the plasma specific activity of 14C-glucose (dpm/μmol). The ratio was corrected for body weight. Endogenous glucose production (EGP) was calculated as the difference between the tracer-derived rate of glucose appearance and the infusion rate of glucose. Glucose disposal was calculated based on the concentration of 14C-glucose normalized to infusion rate of glucose. The statistical significance (p<0.05) in various measures of glucose turnover and VLDL production among groups was tested by analysis of variance."}, "DIO mice [4]": {"test_system": "DIO mice", "assay": "VLDL production in DIO mice after chronic treatment", "conditions": "either dose of CNTO 736", "protocol": "as §2, §3"}, "Sprague-Dawley rats": {"test_system": "Sprague-Dawley rats", "assay": "Intracerebroventricular (icv) dosing in rats: food intake, water intake, body weight", "conditions": "icv 3 nmols", "description": "Sprague-Dawley rats weighing 250-350 g were cannulized into the lateral ventricle at the following coordinates: −0.80 mm anterior, +1.2 mm lateral to bregma, −3.2 mm ventral to bregma. Animals were submitted for Angiotensin II testing to confirm that the cannulas were placed appropriately. Rats were acclimated to a reversed light/dark cycle and to handling. A 24-hour fasted/refed measurement was taken after a single PBS injection in order to establish a feeding baseline. Animals were evenly distributed according to 24-hour food intake from PBS injections (3 groups of 10 animals). Seven-ten days following PBS injection, rats were fasted for 24 hours and were dosed icv prior to entering the dark cycle."}, "[5]": {"conditions": "acute, i.p., CNTO 736 1 mg/kg and 0.1 mg/kg, exenatide 7.1 ug/ml, clamp 2 hours post dosing, differences do not reach statistical significance"}, "[6]": {"conditions": "acute, CNTO 736 0.1 mgk, Hyperinsulinemic"}, "[7]": {"conditions": "acute, CNTO 736 1 mgk, Hyperinsulinemic"}, "[8]": {"conditions": "chronic, CNTO 736 0.1 mgk, Basal"}, "[9]": {"conditions": "chronic, CNTO 736 0.1 mgk, Hyperinsulinemic"}, "[10]": {"conditions": "chronic, CNTO 736 1 mgk, Hyperinsulinemic"}, "[11]": {"conditions": "24 hours fasted rats, first 12 hours following dosing"}, "[12]": {"conditions": "second 12 hours following dosing (12-24 hours)"}}, "note": "Entries after “also recorded” stand apart in the source; their conditions may differ.", "data": [{"substance": "CNTO 736: a GLP-1 receptor agonist, a GLP-1 mimetibody construct; sequence in Table 4 (SEQ ID NO:70)", "values": [{"measurement": "glycerol turnover (lipolysis)", "setting": "DIO mice [1]; acute administration, either dose, basal (fasting) or hyperinsulinemic conditions", "value": "did not affect glycerol turnover"}, {"measurement": "basal glucose production", "setting": "DIO mice [1]; [5]", "value": "tend to decrease the basal glucose production"}, {"measurement": "whole body glucose disposal", "setting": "DIO mice [1]; [5]", "value": "increase the whole body glucose disposal"}, {"measurement": "Body weight", "setting": "DIO mice [1]; acute, CNTO 736 0.1 mgk, Basal", "value": "31.3 ± 1.6", "unit": "g"}, {"measurement": "Body weight", "setting": "DIO mice [1]; [6]", "value": "31.3 ± 1.6", "unit": "g"}, {"measurement": "Body weight", "setting": "DIO mice [1]; acute, CNTO 736 1 mgk, Basal", "value": "31.2 ± 2.2", "unit": "g"}, {"measurement": "Body weight", "setting": "DIO mice [1]; [7]", "value": "31.2 ± 2.2", "unit": "g"}, {"measurement": "FFA", "setting": "DIO mice [1]; acute, CNTO 736 0.1 mgk, Basal", "value": "1.1 ± 0.5", "unit": "mmol/L"}, {"measurement": "Glucose", "setting": "DIO mice [1]; acute, CNTO 736 0.1 mgk, Basal", "value": "5.5 ± 1.2", "unit": "mmol/L"}, {"measurement": "Glycerol", "setting": "DIO mice [1]; acute, CNTO 736 0.1 mgk, Basal", "value": "0.2 ± 0.1", "unit": "mmol/L"}, {"measurement": "Insulin", "setting": "DIO mice [1]; acute, CNTO 736 0.1 mgk, Basal", "value": "1.1 ± 0.8", "unit": "ng/mL"}, {"measurement": "FFA", "setting": "DIO mice [1]; [6]", "value": "0.7 ± 0.3", "unit": "mmol/L"}, {"measurement": "Glucose", "setting": "DIO mice [1]; [6]", "value": "7.3 ± 0.5", "unit": "mmol/L"}, {"measurement": "Glycerol", "setting": "DIO mice [1]; [6]", "value": "0.1 ± 0.1", "unit": "mmol/L"}, {"measurement": "Insulin", "setting": "DIO mice [1]; [6]", "value": "3.5 ± 1.3", "unit": "ng/mL"}, {"measurement": "FFA", "setting": "DIO mice [1]; acute, CNTO 736 1 mgk, Basal", "value": "1.1 ± 0.5", "unit": "mmol/L"}, {"measurement": "Glycerol", "setting": "DIO mice [1]; acute, CNTO 736 1 mgk, Basal", "value": "0.2 ± 0.1", "unit": "mmol/L"}, {"measurement": "Insulin", "setting": "DIO mice [1]; acute, CNTO 736 1 mgk, Basal", "value": "0.9 ± 0.6", "unit": "ng/mL"}, {"measurement": "FFA", "setting": "DIO mice [1]; [7]", "value": "0.6 ± 0.4", "unit": "mmol/L"}, {"measurement": "Glucose", "setting": "DIO mice [1]; [7]", "value": "8.0 ± 0.8", "unit": "mmol/L"}, {"measurement": "Glycerol", "setting": "DIO mice [1]; [7]", "value": "0.1 ± 0.1", "unit": "mmol/L"}, {"measurement": "Insulin", "setting": "DIO mice [1]; [7]", "value": "4.5 ± 1.7", "unit": "ng/mL"}, {"measurement": "glycerol turnover (lipolysis)", "setting": "DIO mice [2]; chronic administration, either dose, basal (fasting) or hyperinsulinemic conditions", "value": "did not affect glycerol turnover"}, {"measurement": "insulin action / peripheral insulin sensitivity", "setting": "DIO mice [2]; chronic dosing, mice with diet-induced obesity", "value": "improve insulin action; also recorded: significantly improves peripheral insulin sensitivity"}, {"measurement": "Body weight", "setting": "DIO mice [2]; [8]", "value": "26.1 ± 1.9", "unit": "g"}, {"measurement": "Body weight", "setting": "DIO mice [2]; [9]", "value": "26.1 ± 1.9", "unit": "g"}, {"measurement": "Body weight", "setting": "DIO mice [2]; [10]", "value": "25.1 ± 1.3", "unit": "g"}, {"measurement": "gluconeogenesis in the fasting state (de novo glucose production)", "setting": "DIO mice [2]; chronic, i.p. daily for 4 weeks", "value": "significantly decreased gluconeogenesis; also recorded: inhibits hepatic gluconeogenesis"}, {"measurement": "basal hepatic glucose production", "setting": "DIO mice [2]; chronic, i.p. daily for 4 weeks, both doses of CNTO 736 (1 or 0.1 mg/kg), exendin-4 7.1 μg/kg", "value": "significantly decreased"}, {"measurement": "insulin-inhibition of hepatic glucose production", "setting": "DIO mice [2]; chronic, i.p. daily for 4 weeks, both doses of CNTO 736, exendin-4 7.1 μg/kg", "value": "increased insulin-inhibition of hepatic glucose production"}, {"measurement": "whole body glucose disposal in the hyperinsulinemic state", "setting": "DIO mice [2]; chronic, i.p. daily for 4 weeks, high dose of CNTO 736 (1 mg/kg), exendin-4 7.1 μg/kg", "value": "significantly increased"}, {"measurement": "gluconeogenesis in the fasting state (de novo glucose production)", "setting": "DIO mice [2]; chronic, i.p. daily for 4 weeks, listed as CNT0736", "value": "inhibited de novo glucose production"}, {"measurement": "FFA", "setting": "DIO mice [2]; [8]", "value": "1.1 ± 0.3", "unit": "mmol/L"}, {"measurement": "Glycerol", "setting": "DIO mice [2]; [8]", "value": "0.2 ± 0.0", "unit": "mmol/L"}, {"measurement": "Insulin", "setting": "DIO mice [2]; [8]", "value": "1.1 ± 0.6", "unit": "ng/mL"}, {"measurement": "FFA", "setting": "DIO mice [2]; [9]", "value": "0.5 ± 0.1", "unit": "mmol/L"}, {"measurement": "Glucose", "setting": "DIO mice [2]; [9]", "value": "7.6 ± 1.1", "unit": "mmol/L"}, {"measurement": "Glycerol", "setting": "DIO mice [2]; [9]", "value": "0.1 ± 0.1", "unit": "mmol/L"}, {"measurement": "Insulin", "setting": "DIO mice [2]; [9]", "value": "4.6 ± 1.0", "unit": "ng/mL"}, {"measurement": "FFA", "setting": "DIO mice [2]; chronic, CNTO 736 1 mgk, Basal", "value": "1.1 ± 0.2", "unit": "mmol/L"}, {"measurement": "Glycerol", "setting": "DIO mice [2]; chronic, CNTO 736 1 mgk, Basal", "value": "0.2 ± 0.1", "unit": "mmol/L"}, {"measurement": "Insulin", "setting": "DIO mice [2]; chronic, CNTO 736 1 mgk, Basal", "value": "1.4 ± 1.3", "unit": "ng/mL"}, {"measurement": "FFA", "setting": "DIO mice [2]; [10]", "value": "0.4 ± 0.1", "unit": "mmol/L"}, {"measurement": "Glucose", "setting": "DIO mice [2]; [10]", "value": "7.6 ± 0.9", "unit": "mmol/L"}, {"measurement": "Glycerol", "setting": "DIO mice [2]; [10]", "value": "0.1 ± 0.1", "unit": "mmol/L"}, {"measurement": "Insulin", "setting": "DIO mice [2]; [10]", "value": "5.0 ± 1.9", "unit": "ng/mL"}, {"measurement": "basal or hyperinsulinemic rate of VLDL production", "setting": "DIO mice [3]", "value": "did not change"}, {"measurement": "basal and hyperinsulinemic rate of VLDL production", "setting": "DIO mice [4]", "value": "significantly decreased; also recorded: decreases VLDL production"}, {"measurement": "food intake", "setting": "Sprague-Dawley rats; [11]", "value": "significant reduction"}, {"measurement": "water intake", "setting": "Sprague-Dawley rats; [11]", "value": "significant reduction"}, {"measurement": "food intake", "setting": "Sprague-Dawley rats; [12]", "value": "significant reduction in food intake"}, {"measurement": "water intake", "setting": "Sprague-Dawley rats; [12]", "value": "observed only with exendin-4 treatment"}]}]}
